Calls of active or inactive are those of the source.
Legend:
[1] = target: Tyrosine-protein kinase ABL1 (Homo sapiens, UniProt P00519); assay type: functional
[2] = target: Vascular endothelial growth factor receptor 2 (Homo sapiens, UniProt P35968); assay type: functional
SRSF protein kinase 1 = SRSF protein kinase 1 (Homo sapiens, UniProt Q96SB4); assay type: functional;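 note: measured as one member of a kinome-wide kinase profiling panel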
[3] = target: Mitogen-activated protein kinase 1 (Homo sapiens, UniProt P28482); assay type: functional
Mitogen-activated protein kinase 1, sequence (P28482 whole entry): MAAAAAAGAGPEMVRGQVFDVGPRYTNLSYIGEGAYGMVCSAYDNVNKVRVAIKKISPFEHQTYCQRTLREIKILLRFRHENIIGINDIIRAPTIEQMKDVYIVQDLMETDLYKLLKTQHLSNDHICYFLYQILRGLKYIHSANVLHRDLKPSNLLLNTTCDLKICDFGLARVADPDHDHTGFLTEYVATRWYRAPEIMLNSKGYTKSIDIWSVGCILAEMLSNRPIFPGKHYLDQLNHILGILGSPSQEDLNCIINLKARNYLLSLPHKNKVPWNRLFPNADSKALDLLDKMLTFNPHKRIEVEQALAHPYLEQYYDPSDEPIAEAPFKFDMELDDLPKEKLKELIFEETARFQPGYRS

[4] = target: Tyrosine-protein kinase receptor UFO (Homo sapiens, UniProt P30530); assay type: functional
Tyrosine-protein kinase receptor UFO, sequence (P30530 whole entry): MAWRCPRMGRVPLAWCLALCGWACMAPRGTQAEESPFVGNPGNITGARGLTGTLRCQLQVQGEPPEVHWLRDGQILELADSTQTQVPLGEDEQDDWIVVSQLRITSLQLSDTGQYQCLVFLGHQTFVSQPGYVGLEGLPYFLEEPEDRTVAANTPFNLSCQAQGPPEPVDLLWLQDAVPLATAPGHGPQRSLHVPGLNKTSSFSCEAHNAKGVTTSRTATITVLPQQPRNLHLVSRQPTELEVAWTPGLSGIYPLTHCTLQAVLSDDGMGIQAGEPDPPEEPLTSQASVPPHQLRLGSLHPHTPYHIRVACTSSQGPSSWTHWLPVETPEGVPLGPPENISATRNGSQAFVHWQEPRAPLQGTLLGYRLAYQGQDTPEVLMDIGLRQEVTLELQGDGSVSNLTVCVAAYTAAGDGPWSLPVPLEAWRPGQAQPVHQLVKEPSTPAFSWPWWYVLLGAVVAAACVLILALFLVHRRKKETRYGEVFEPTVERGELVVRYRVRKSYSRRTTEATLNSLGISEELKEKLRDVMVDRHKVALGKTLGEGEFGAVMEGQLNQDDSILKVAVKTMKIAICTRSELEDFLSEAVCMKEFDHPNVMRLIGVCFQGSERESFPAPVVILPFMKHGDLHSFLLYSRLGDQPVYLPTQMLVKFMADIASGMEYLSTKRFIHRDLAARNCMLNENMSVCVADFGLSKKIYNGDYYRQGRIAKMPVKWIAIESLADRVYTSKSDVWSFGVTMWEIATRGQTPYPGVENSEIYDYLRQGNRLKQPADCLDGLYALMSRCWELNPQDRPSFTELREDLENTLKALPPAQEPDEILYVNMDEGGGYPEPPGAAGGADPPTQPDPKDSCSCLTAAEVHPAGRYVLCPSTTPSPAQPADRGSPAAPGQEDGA

[5] = target: Serine/threonine-protein kinase MRCK alpha (Homo sapiens, UniProt Q5VT25); assay type: functional
Serine/threonine-protein kinase MRCK alpha, sequence (Q5VT25 whole entry): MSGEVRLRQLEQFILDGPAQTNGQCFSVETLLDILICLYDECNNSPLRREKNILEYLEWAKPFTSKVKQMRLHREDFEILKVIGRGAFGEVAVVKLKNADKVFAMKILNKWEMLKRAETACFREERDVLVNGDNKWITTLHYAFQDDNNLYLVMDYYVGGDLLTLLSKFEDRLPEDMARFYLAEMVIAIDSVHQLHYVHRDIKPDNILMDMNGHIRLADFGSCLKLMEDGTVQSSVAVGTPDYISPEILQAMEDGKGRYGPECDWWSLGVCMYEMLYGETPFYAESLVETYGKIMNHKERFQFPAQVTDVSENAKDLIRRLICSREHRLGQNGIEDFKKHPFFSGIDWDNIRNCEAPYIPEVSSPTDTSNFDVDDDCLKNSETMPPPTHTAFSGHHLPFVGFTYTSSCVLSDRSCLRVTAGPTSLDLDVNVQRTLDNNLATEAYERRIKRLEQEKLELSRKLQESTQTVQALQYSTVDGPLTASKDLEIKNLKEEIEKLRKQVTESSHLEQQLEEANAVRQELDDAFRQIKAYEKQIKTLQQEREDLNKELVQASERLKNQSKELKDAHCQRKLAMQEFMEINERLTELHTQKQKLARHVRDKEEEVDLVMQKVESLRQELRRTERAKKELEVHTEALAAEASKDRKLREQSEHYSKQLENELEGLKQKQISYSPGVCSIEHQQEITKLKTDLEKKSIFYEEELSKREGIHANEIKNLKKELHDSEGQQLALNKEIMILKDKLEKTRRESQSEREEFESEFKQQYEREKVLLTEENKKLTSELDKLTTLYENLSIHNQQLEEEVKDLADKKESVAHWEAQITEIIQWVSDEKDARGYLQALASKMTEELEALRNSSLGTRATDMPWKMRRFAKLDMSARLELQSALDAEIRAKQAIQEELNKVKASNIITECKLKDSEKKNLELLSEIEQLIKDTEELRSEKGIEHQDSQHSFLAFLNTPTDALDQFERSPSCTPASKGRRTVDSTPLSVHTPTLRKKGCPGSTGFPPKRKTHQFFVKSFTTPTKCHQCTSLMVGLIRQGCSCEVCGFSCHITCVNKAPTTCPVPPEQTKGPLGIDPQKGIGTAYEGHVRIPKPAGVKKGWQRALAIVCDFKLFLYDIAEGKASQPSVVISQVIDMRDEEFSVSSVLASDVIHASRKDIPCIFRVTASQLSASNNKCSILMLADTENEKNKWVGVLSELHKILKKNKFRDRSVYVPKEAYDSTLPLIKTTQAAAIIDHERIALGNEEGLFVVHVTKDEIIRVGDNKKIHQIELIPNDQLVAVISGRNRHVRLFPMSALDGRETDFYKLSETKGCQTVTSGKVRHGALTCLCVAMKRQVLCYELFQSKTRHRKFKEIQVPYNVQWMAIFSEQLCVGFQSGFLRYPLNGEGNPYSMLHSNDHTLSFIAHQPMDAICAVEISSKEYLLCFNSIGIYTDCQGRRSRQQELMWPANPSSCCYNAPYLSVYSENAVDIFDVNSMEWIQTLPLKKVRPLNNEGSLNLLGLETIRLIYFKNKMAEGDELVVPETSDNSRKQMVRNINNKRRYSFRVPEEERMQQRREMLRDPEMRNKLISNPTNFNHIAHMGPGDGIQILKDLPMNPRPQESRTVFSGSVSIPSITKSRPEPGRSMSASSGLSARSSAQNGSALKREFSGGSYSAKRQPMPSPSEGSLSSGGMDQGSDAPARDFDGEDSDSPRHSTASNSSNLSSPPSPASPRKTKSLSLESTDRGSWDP

[6] = target: MAP/microtubule affinity-regulating kinase 3 (Homo sapiens, UniProt P27448); assay type: functional;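 note: MARK3 affinity measured as one member of a kinome panel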
[7] = target: Phosphorylase b kinase gamma catalytic chain, liver/testis isoform (Homo sapiens, UniProt P15735); assay type: functional;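 note: PHKG2 measured as one member of a kinome-wide kinase panel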
Phosphorylase b kinase gamma catalytic chain, liver/testis isoform, sequence (P15735 whole entry, canonical isoform): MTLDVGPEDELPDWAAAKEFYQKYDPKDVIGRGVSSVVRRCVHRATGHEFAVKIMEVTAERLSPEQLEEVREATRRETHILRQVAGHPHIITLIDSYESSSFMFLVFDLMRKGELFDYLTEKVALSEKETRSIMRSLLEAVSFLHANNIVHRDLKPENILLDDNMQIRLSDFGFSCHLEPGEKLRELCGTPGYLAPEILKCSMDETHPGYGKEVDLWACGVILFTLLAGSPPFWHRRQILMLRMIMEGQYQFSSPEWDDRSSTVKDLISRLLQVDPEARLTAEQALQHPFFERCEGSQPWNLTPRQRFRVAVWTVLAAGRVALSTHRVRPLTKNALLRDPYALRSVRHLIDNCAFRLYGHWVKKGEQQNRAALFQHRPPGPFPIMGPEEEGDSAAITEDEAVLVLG

[8] = target: Testis-specific serine/threonine-protein kinase 1 (Homo sapiens, UniProt Q9BXA7); assay type: functional
[9] = target: cGMP-dependent protein kinase 1 (Homo sapiens, UniProt Q13976); assay type: functional;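 note: value from a kinome panel screen with PRKG1 as the panel member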
[10] = target: Mitogen-activated protein kinase 13 (Homo sapiens, UniProt O15264); assay type: functional
Mitogen-activated protein kinase 13, sequence (O15264 whole entry): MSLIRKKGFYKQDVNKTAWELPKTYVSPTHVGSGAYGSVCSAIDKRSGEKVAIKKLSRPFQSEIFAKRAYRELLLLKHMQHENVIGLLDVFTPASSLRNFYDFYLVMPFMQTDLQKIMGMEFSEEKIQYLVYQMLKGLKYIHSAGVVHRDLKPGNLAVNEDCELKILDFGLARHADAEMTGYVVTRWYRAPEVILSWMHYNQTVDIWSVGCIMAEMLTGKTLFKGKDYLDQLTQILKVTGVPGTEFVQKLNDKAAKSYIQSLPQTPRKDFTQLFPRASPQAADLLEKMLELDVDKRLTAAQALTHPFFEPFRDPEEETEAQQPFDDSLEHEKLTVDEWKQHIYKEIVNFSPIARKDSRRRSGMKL

[11] = target: Homeodomain-interacting protein kinase 4 (Homo sapiens, UniProt Q8NE63); assay type: functional
Homeodomain-interacting protein kinase 4, sequence (Q8NE63 whole entry): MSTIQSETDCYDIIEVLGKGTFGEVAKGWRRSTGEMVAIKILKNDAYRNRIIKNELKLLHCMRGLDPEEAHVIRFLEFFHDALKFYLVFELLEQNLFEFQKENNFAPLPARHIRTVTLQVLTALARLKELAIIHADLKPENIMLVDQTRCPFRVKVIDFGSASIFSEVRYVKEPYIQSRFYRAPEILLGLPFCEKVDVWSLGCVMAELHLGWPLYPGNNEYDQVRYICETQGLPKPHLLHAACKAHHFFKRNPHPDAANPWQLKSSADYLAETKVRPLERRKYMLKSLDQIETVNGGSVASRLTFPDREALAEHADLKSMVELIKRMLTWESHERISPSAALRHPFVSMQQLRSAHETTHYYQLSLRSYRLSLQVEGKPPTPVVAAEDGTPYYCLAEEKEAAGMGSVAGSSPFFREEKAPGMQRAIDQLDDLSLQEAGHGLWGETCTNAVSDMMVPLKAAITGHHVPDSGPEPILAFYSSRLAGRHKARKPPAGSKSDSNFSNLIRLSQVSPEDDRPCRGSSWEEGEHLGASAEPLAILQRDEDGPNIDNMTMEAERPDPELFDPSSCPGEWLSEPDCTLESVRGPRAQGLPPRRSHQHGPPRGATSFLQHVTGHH

[12] = target: Serine/threonine-protein kinase N2 (Homo sapiens, UniProt Q16513); assay type: functional
[13] = target: MAP kinase-activated protein kinase 5 (Homo sapiens, UniProt Q8IW41); assay type: functional;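 note: measured as one member of a kinome panel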
[14] = target: Serine/threonine-protein kinase BRSK1 (Homo sapiens, UniProt Q8TDC3); assay type: functional;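 note: measured within a kinome-wide kinase panel, with the target listed as KIAA1811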
[15] = target: Megakaryocyte-associated tyrosine-protein kinase (Homo sapiens, UniProt P42679); assay type: functional;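 note: affinity measured as one member of a kinase panel (Navigating the Kinome) against MATK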
[16] = target: Protein kinase C delta type (Homo sapiens, UniProt Q05655); assay type: functional
Protein kinase C delta type, sequence (Q05655 whole entry): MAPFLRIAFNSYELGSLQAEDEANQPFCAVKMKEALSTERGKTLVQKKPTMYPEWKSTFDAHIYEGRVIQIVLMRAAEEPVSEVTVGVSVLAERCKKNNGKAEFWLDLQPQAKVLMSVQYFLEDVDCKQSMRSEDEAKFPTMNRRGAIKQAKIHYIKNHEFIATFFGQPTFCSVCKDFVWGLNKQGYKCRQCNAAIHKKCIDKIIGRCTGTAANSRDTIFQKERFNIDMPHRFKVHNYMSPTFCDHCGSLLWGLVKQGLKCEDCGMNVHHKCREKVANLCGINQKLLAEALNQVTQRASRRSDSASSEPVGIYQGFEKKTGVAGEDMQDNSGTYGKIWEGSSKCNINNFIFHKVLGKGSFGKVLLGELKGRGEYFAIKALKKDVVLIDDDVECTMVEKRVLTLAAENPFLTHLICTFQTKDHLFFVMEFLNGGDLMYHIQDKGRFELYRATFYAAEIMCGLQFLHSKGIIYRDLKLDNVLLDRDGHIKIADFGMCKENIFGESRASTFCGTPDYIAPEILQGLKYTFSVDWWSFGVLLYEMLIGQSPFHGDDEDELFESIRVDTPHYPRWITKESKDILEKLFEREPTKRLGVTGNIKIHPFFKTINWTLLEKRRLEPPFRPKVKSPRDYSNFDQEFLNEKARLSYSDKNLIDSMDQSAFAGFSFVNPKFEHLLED

[17] = target: T1, Long-chain-fatty-acid--AMP ligase FadD28 (Mycobacterium tuberculosis, UniProt P9WQ59); assay: Fluorescence polarization aasay to screen for inhibitors that compete for the binding of FadD28 to a bisubstrate Measured in Biochemical System Using Plate Reader - 2147-01_Inhibitor_Dose_CherryPick_Activity.; assay type: functional, Mycobacterium tuberculosis H37Rv
T1 sequence (P9WQ59 whole entry): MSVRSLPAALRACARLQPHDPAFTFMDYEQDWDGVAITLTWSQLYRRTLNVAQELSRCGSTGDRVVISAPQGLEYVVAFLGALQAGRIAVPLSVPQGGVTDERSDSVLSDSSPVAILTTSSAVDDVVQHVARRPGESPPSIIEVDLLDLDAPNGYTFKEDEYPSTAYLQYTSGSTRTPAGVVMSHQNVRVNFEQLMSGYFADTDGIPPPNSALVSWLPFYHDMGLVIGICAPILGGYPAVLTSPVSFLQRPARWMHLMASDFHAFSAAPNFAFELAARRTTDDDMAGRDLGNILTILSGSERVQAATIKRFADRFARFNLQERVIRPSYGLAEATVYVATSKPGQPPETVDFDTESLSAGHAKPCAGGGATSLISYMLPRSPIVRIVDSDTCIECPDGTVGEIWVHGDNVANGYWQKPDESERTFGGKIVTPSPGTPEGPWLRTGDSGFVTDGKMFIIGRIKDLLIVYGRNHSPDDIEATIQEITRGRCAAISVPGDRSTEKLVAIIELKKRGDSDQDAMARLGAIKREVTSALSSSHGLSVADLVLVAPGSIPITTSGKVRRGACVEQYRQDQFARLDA

Streptokinase A = target: T2, Streptokinase A (Streptococcus pyogenes serotype M1, UniProt P10520); assay: S. pyogenes streptokinase expression inhibitors, potency, dose response, plasminogen activation absorbance, OD405 (AID 1914); assay type: functional, Streptococcus pyogenes M1 GAS;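 note: secreted streptokinase activity via plasminogen activation per viability signal from cell pellet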
T2 sequence (P10520 whole entry): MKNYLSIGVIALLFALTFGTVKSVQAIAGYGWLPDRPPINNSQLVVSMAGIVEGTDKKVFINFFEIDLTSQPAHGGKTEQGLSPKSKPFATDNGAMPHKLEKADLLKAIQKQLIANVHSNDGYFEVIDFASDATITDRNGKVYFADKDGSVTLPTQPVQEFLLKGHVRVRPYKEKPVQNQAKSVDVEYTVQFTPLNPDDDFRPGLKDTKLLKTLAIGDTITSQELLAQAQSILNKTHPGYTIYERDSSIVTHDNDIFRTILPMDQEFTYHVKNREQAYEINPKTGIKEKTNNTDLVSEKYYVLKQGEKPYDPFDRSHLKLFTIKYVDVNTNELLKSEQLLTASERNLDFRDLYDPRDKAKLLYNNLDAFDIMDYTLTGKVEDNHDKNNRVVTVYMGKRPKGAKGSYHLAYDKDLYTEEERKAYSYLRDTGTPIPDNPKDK

SMILES: COc1ccc(C2=NNc3cccc4c(OC)ccc2c34)cc1OC
- Ki [1]: > 2510 nM (inactive)
- Ki [2]: > 2510 nM (inactive)

SMILES: CN1CCC(c2c(O)cc(O)c3c(=O)cc(-c4ccccc4Cl)oc23)C(O)C1 (stereo unspecified)
- Ki (SRSF protein kinase 1): 501 nM (active)
- Ki [3]: > 7940 nM (inactive)
- Ki [4]: 1000 nM (active)
- pKi [4]: 6
- Ki [5]: 631 nM (active)
- pKi [5]: 6.2
- Ki [6]: > 6310 nM (inactive)
- Ki [7]: > 5010 nM (inactive)
- Ki [8]: > 1580 nM (inactive)
- Ki [9]: > 2000 nM (inactive)
- Ki [10]: 501 nM (active)
- Ki [11]: > 7940 nM (inactive)
- Ki [12]: 5010 nM (active)
- Ki [13]: > 1580 nM (inactive)
- Ki [14]: > 10000 nM (inactive)
- Ki [15]: 316 nM (active)
- Ki [16]: 1260 nM (active)

SMILES: CC(/C=C1\SC(=S)N(NS(=O)(=O)c2ccc(C)cc2)C1=O)=C\c1ccccc1
- AC50 [17]: > 100000 nM (inactive)
- EC50 (Streptokinase A): > 150000 nM (not active)
